# Test results published in PubChem BioAssay AID1259411 (Chemical Carcinogenesis Research Information System (CCRIS), 2018).
# Activity calls are given as the source filed them. How the calls were made is not given here.
# Test system: rodent carcinogenicity bioassays, tumor incidence
# Assay: CCRIS carcinogenicity studies
# Outline: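 NCI-built, expert-reviewed records of carcinogenicity and related test outcomes (mutagenicity, tumor promotion/inhibition) compiled from published and report sources, historical span 1985-2011, not updated.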
smiles,measurement,setting,value
CC(=O)Nc1ccc2c(c1)Cc1ccccc1-2,carcinogen call,"Species: DOG, Strain/Sex: BEAGLE, Route: ORAL, Dose: 8.3-10.9 MG/KG/D (AVE DAILY INTAKE) FOR 68.5-91 MO (TOTAL DOSE: 90-198 G), Tumor Site: Type of Lesion: LIVER: CARCINOMA, URINARY BLADDER: PAPILLOMA",active; positive
same,carcinogen call,"Species: FISH, Strain/Sex: GUPPY/ MALE, FEMALE, Route: IMMERSION, Dose: 0, 1 MG/L IN WELL WATER FOR 1 6 HR EXPOSURE OR FOR 1,2,3 OR 4 12 HR EXPOSURES, MULTIPLE EXPOSURES GIVEN AT WEEKLY INTERV",inactive; negative
same,carcinogen call,"Species: FISH, Strain/Sex: GUPPY/ MALE, FEMALE, Route: IMMERSION, Dose: 0, 1 MG/L IN WELL WATER FOR 7 D CONTINUOUS EXPOSURE, SOLUTIONS RENEWED EVERY 24 HR (STUDY DURATION: 52 WK), Tumor Site: Type of Lesion: LIVER: TUMOR",active; positive
same,carcinogen call,"Species: FISH, Strain/Sex: MEDAKA/ MALE, FEMALE, Route: IMMERSION, Dose: 0, 1 MG/L IN WELL WATER FOR 1 6 HR EXPOSURE OR FOR 1,2,3 OR 4 12 HR EXPOSURES, MULTIPLE EXPOSURES GIVEN AT WEEKLY INTERV",inactive; negative
same,carcinogen call,"Species: FISH, Strain/Sex: MEDAKA/ MALE, FEMALE, Route: IMMERSION, Dose: 0, 1 MG/L IN WELL WATER FOR 7 D CONTINUOUS EXPOSURE, SOLUTIONS RENEWED EVERY 24 HR (STUDY DURATION: 52 WK)",inactive; negative
same,carcinogen call,"Species: HAMSTER, Strain/Sex: SYRIAN/ MALE, FEMALE, Route: INTRAPERITONEAL, ORAL, Dose: 5 MG/100 G 3/WK FOR 3 WK, THEN 0.06% IN DIET, Tumor Site: Type of Lesion: URINARY BLADDER, LIVER: CHOLANGIOCARCINOMA",active; positive
same,carcinogen call,"Species: HAMSTER, Strain/Sex: SYRIAN/FEMALE, Route: ORAL, Dose: 0.025% IN DIET FOR LIFE, Tumor Site: Type of Lesion: LIVER: INTRAHEPATIC BILE DUCT CARCINOMA",active; positive
same,carcinogen call,"Species: HAMSTER, Strain/Sex: SYRIAN, Route: ORAL, Dose: 5 MG FOR 22 WK THEN 15 MG FOR 4 WK, THEN 10 MG 2/WK AFTER 42 WK, Tumor Site: Type of Lesion: URINARY BLADDER: CARCINOMA",active; positive
same,carcinogen call,"Species: MOUSE, Strain/Sex: BALB/C/FEMALE, Route: ORAL, Dose: 0, 75, 100, 150 PPM IN DIET UP TO 33 MO (STUDY DURATION: 33 MO), Dose: 0, 75, 100, 150 PPM IN DIET UP TO 33 MO (STUDY DURATION: 33 MO), Tumor Site: Type of Lesion: LIVER: HEPATOCELLULAR ADENOMA OR CARCINOMA, BLADDER: TRANSITIONAL CELL CARCINOMA",active; positive
same,carcinogen call,"Species: MOUSE, Strain/Sex: CBA/ MALE, FEMALE, Route: ORAL, Dose: 3 MG/MOUSE 2/WK, Tumor Site: Type of Lesion: MAMMARY GLAND, URINARY BLADDER, LIVER, Tumor Site: Type of Lesion: MAMMARY GLAND, URINARY BLADDER, LIVER",active; positive
same,carcinogen call,"Species: MOUSE, Strain/Sex: EU-PIM-1/FEMALE, Route: GAVAGE, Dose: 0, 25, 100 MG/KG 1/D FOR 38 WK (STUDY DURATION: 38 WK), Dose: 0, 25, 100 MG/KG 1/D FOR 38 WK (STUDY DURATION: 38 WK)",inactive; negative
same,carcinogen call,"Species: MOUSE, Strain/Sex: EU-PIM-1/MALE, Route: GAVAGE, Dose: 0, 25, 100 MG/KG 1/D FOR 38 WK (STUDY DURATION: 38 WK), Dose: 0, 25, 100 MG/KG 1/D FOR 38 WK (STUDY DURATION: 38 WK), Tumor Site: Type of Lesion: LYMPHATIC SYSTEM: LYMPHOMA",active; positive
same,carcinogen call,"Species: MOUSE, Strain/Sex: R-III/ MALE, FEMALE, Route: ORAL, Dose: 3 MG/MOUSE 2/WK, Tumor Site: Type of Lesion: URINARY BLADDER, LIVER",active; positive
same,carcinogen call,"Species: MOUSE, Strain/Sex: STRAIN-A/ MALE, FEMALE, Route: ORAL, Dose: 3 MG/MOUSE 2/WK, Tumor Site: Type of Lesion: URINARY BLADDER",active; positive
same,carcinogen call,"Species: MOUSE, Strain/Sex: STRAIN-IF/ MALE, FEMALE, Route: ORAL, Dose: 3 MG/MOUSE 2/WK, Tumor Site: Type of Lesion: URINARY BLADDER, LIVER, MAMMARY GLAND, Tumor Site: Type of Lesion: URINARY BLADDER, LIVER, MAMMARY GLAND",active; positive
same,carcinogen call,"Species: RABBIT, Strain/Sex: NZW/ MALE, FEMALE, Route: ORAL, Dose: 100 MG 2/WK (TOTAL DOSE 21-52 G AS POWDER), Tumor Site: Type of Lesion: URINARY BLADDER: PAPILLOMA, ADENOCARCINOMA, URETER: PAPILLOMA, ADENOCARCINOMA",active; positive
same,carcinogen call,"Species: RABBIT, Strain/Sex: NZW/FEMALE, Route: ORAL, Dose: 100 MG IN 1 ML CORN OIL 2/WK FOR LIFE, Tumor Site: Type of Lesion: URINARY BLADDER: TRANSITIONAL CELL TUMOR, KIDNEY: TRANSITIONAL CELL TUMOR",active; positive
same,carcinogen call,"Species: RAT, Strain/Sex: AES/FEMALE, Route: ORAL, Dose: 300 MG/KG IN SEMI-PURIFIED OR STOCK DIET, Tumor Site: Type of Lesion: EAR (DUCT): CARCINOMA",active; positive
same,carcinogen call,"Species: RAT, Strain/Sex: ALBINO/ MALE, FEMALE, Route: ORAL, Dose: 0.036% IN DIET FOR 8 MO, Tumor Site: Type of Lesion: LIVER: HEPATOMA, MAMMARY GLAND, EAR (DUCT), Tumor Site: Type of Lesion: LIVER: HEPATOMA, MAMMARY GLAND, EAR (DUCT)",active; positive
same,carcinogen call,"Species: RAT, Strain/Sex: ALBINO/FEMALE, Route: ORAL, Dose: 0.125% IN DIET, Tumor Site: Type of Lesion: URINARY BLADDER: CARCINOMA",active; positive
same,carcinogen call,"Species: RAT, Strain/Sex: ALBINO/MALE, Route: ORAL, Dose: 0.018, 0.036% IN DIET FOR 90 DAYS, Tumor Site: Type of Lesion: LIVER: HEPATOMA, EAR (DUCT), INTESTINES (SMALL), Tumor Site: Type of Lesion: LIVER: HEPATOMA, EAR (DUCT), INTESTINES (SMALL)",active; positive
same,carcinogen call,"Species: RAT, Strain/Sex: BUFFALO/ MALE, FEMALE, Route: ORAL, Dose: 0.05% IN DIET FOR 23 WK (580 MG/RAT), Tumor Site: Type of Lesion: LIVER: HEPATOMA, EAR (DUCT): CARCINOMA",active; positive
same,carcinogen call,"Species: RAT, Strain/Sex: F344/MALE, Route: ORAL, Dose: 0.06% IN DIET FOR 3 WK, THEN CONTROL DIET FOR 1 WK, REPEATED 3X, Tumor Site: Type of Lesion: TESTES: MESOTHELIOMA, LIVER: HEPATOCELLULAR CARCINOMA, CHOLANGIOCARCINOMA",active; positive
same,carcinogen call,"Species: RAT, Strain/Sex: FEMALE, Route: ORAL, Dose: 0.03% IN DIET, Tumor Site: Type of Lesion: EYE",active; positive
same,carcinogen call,"Species: RAT, Strain/Sex: FEMALE, Route: ORAL, Dose: 1.62 MMOL/KG DIET FOR 8 MO, Tumor Site: Type of Lesion: MAMMARY GLAND, EAR (DUCT), INTESTINES (SMALL), Tumor Site: Type of Lesion: MAMMARY GLAND, EAR (DUCT), INTESTINES (SMALL)",active; positive
same,carcinogen call,"Species: RAT, Strain/Sex: HOLTZMAN/FEMALE, Route: ORAL, Dose: 1.62 MMOL/KG IN DIET, Tumor Site: Type of Lesion: MAMMARY GLAND, EAR (DUCT), INTESTINES (SMALL), Tumor Site: Type of Lesion: MAMMARY GLAND, EAR (DUCT), INTESTINES (SMALL)",active; positive
same,carcinogen call,"Species: RAT, Strain/Sex: HOLTZMAN/MALE, Route: ORAL, Dose: 1.62 MMOL/KG IN DIET, Tumor Site: Type of Lesion: LIVER, EAR (DUCT), INTESTINES (SMALL), Tumor Site: Type of Lesion: LIVER, EAR (DUCT), INTESTINES (SMALL)",active; positive
same,carcinogen call,"Species: RAT, Strain/Sex: LONG-EVANS/ MALE, FEMALE, Route: ORAL, Dose: IN DIET, Tumor Site: Type of Lesion: EAR (AUDITORY CANAL): SQUAMOUS CELL CARCINOMA",active; positive
same,carcinogen call,"Species: RAT, Strain/Sex: MALE, Route: ORAL, Dose: 1.62 MMOL/KG IN DIET FOR 8 MO, Tumor Site: Type of Lesion: LIVER: HEPATOMA, INTESTINES (SMALL), EAR (DUCT), Tumor Site: Type of Lesion: LIVER: HEPATOMA, INTESTINES (SMALL), EAR (DUCT)",active; positive
same,carcinogen call,"Species: RAT, Strain/Sex: PIEBALD/ MALE, FEMALE, Route: ORAL, Dose: 4 MG DAILY IN DIET FOR 25 WK, Tumor Site: Type of Lesion: LIVER: HEPATOMA, EAR (DUCT): CARCINOMA, INTESTINES: CARCINOMA, Tumor Site: Type of Lesion: LIVER: HEPATOMA, EAR (DUCT): CARCINOMA, INTESTINES: CARCINOMA",active; positive
same,carcinogen call,"Species: RAT, Strain/Sex: PIEBALD/FEMALE, Route: ORAL, Dose: 0.03% IN DIET, Tumor Site: Type of Lesion: MAMMARY GLAND: CARCINOMA",active; positive
same,carcinogen call,"Species: RAT, Strain/Sex: PIEBALD/MALE, Route: DERMAL, Dose: IN ACETONE, Tumor Site: Type of Lesion: LIVER: HEPATOMA, INTESTINES: CARCINOMA",active; positive
same,carcinogen call,"Species: RAT, Strain/Sex: SHEFFIELD/ MALE, FEMALE, Route: ORAL, Dose: 4 MG DAILY IN DIET FOR 25 WK, Tumor Site: Type of Lesion: LIVER: HEPATOMA, EAR (DUCT): CARCINOMA, INTESTINES: CARCINOMA, Tumor Site: Type of Lesion: LIVER: HEPATOMA, EAR (DUCT): CARCINOMA, INTESTINES: CARCINOMA",active; positive
same,carcinogen call,"Species: RAT, Strain/Sex: SHERMAN/ MALE, FEMALE, Route: ORAL, Dose: 0.03% IN DIET FOR LIFE, Tumor Site: Type of Lesion: LIVER: CARCINOMA",active; positive
same,carcinogen call,"Species: RAT, Strain/Sex: SPRAGUE-DAWLEY/FEMALE, Route: INTRAPERITONEAL, Dose: 1 MG/0.1 ML 3/WK FOR 4 WK (TOTAL DOSE 0.17 MMOL/RAT), Tumor Site: Type of Lesion: MAMMARY GLAND: ADENOCARCINOMA",active; positive
same,carcinogen call,"Species: RAT, Strain/Sex: SPRAGUE-DAWLEY/FEMALE, Route: ORAL, Dose: 300 MG/KG IN SEMI-PURIFIED OR STOCK DIET, Tumor Site: Type of Lesion: EAR (DUCT): CARCINOMA",active; positive
same,carcinogen call,"Species: RAT, Strain/Sex: STRAIN-CD/FEMALE, Route: ORAL, Dose: 80, 250 PPM IN DIET FOR 78 WK (LOW DOSE) OR 50 WK (HIGH DOSE), Tumor Site: Type of Lesion: LIVER: NEOPLASTIC NODULE, HEPATOCELLULAR CARCINOMA, MAMMARY GLAND: ADENOCARCINOMA",active; positive
same,carcinogen call,"Species: RAT, Strain/Sex: STRAIN-CD/MALE, Route: ORAL, Dose: 80, 250 PPM IN DIET FOR 78 WK (LOW DOSE) OR 50 WK (HIGH DOSE), Tumor Site: Type of Lesion: LIVER: HEPATOCELLULAR CARCINOMA",active; positive
same,carcinogen call,"Species: RAT, Strain/Sex: WISTAR/ MALE, FEMALE, Route: ORAL, Dose: 0.03% IN DIET FOR LIFE, Tumor Site: Type of Lesion: LIVER: CARCINOMA",active; positive
same,carcinogen call,"Species: RAT, Strain/Sex: WISTAR/ MALE, FEMALE, Route: ORAL, Dose: 0.07% IN DIET, Tumor Site: Type of Lesion: LIVER: HEPATOMA",active; positive
same,carcinogen call,"Species: RAT, Strain/Sex: WISTAR/MALE, Route: DERMAL, Dose: IN ACETONE, Tumor Site: Type of Lesion: LIVER: HEPATOMA, INTESTINES: CARCINOMA",active; positive
